Values quoted from earlier work, collected in patent US4307083A, “LRF Antagonists” (The Salk Institute for Biological Studies, priority 1980, dated 1981).
Non-standard residues stand in square brackets, D forms with d. pGlu = O=C1CC[C@@H](C(=O)O)N1

Test system: release of gonadotropins
Conditions: versus des-His2 peptide with Gly instead of D-Ala at position 6

Substance: [pGlu]WSY[dA]LRPG-NH2
- Potency as inhibitor of gonadotropin release relative to the same peptide with Gly in the 6-position: 3 times
